The values below come from patent publication US9808434B2, “Compound for treating cancer and diabetes” (CITY OF HOPE, priority 2011, dated 2017).

For orientation: IC50 means the midpoint of a concentration-inhibition curve. Low values mean greater potency, high ones weaker potency.

Assay [1] concerns isolated mouse liver mitochondria. As to the kind of experiment: Mitochondrial swelling assay. As to conditions: potassium acetate buffer with valinomycin. The method, then: Mitochondrial swelling was measured in non-respiring mouse liver mitochondria incubated in buffered isotonic potassium acetate in the presence of valinomycin (24,25). […] Absorbance of the mitochondrial suspension before and after addition test compounds was measured every 10 seconds using a Varian Cary 300 spectrophotometer (Agilent Technologies, Santa Clara, Calif.). Swelling was recorded from the decrease in absorbance at 600 nm and expressed as percentage from initial reading after addition of mitochondria.
Mitochondrial membrane swelling was detected as decrease in absorbance at 600 nm following the addition of COH-SR4 or FCCP alone or in the presence of cysclosporin A (CSA, 1 μM) on isolated mouse liver mitochondria respiring on succinate (10 mM) in the presence of rotenone (1 μM) and valinomycin (5 μM) in potassium acetate buffer. […] Arrow indicates time of addition of test compounds into the mitochondria suspension.

The subject of a further assay is H520 cells. As to the kind of experiment: MTT assay, H520. The following applies: Homo sapiens, NCI-H520, 48 h. Format: cell-based. The method, then: Cell density measurements were performed using a hemocytometer to count reproductive cells resistant to staining with trypan blue. Approximately 20,000 cells were plated into each well of 96-well flat-bottomed micro-titer plates. After 12 h or 24 h incubation at 37° C., medium containing either COH-SR4 (ranging 0-200 μM) or elesclomol (ranging 0-20 μM) were added to the cells. After 24 h, 48 h or 96 h incubation, 20 μL of 5 mg/mL MTT were introduced to each well and incubated for 2 h. The plates were centrifuged and medium was decanted. Cells were subsequently dissolved in 100 μl DMSO with gentle shaking for 2 h at room temperature, followed by measurement of OD570 (91).
The effect of COH-SR4 was first examined in a NCI panel of cancer cell lines, the results of which indicated good activity of COH-SR4 towards lung cancer (FIG. 78A). […] Values are presented as mean±SD from two separate determinations with eight replicates each (n=16) (FIG. 78B). […] Standard colony-forming assay was performed and the colonies were counted using Innotech Alpha Imager HP. […] TUNEL assay was performed using Promega fluorescence detection kit and examined using Zeiss LSM 510 META laser-scanning fluorescence microscope with filters 520 and 620 nm. […]
On the technique in general: Tetrazolium assays rely on reduction of a dye to a coloured formazan, in cell work by metabolically active cells.

A further assay relates to B16-F0 melanoma. Format: in vivo. The method, then: For melanoma studies, C57B mice (for syngeneic B16-F0 mouse melanoma model) and Hsd: Athymic nude nu/nu mice (for A2058 human melanoma mouse xenografts model), were obtained from Harlan, Indianapolis, Ind. All animal experiments were carried out in accordance with a protocol approved by the Institutional Animal Care and Use Committee (IACUC). In each model, ten 10-weeks-old mice were divided into two groups of 5 animals (treated with corn oil (vehicle), and COH-SR4 compound 4 mg/kg b.w.). All animals were injected with 2×10^6 melanoma cells suspensions in 100 μL of PBS, subcutaneously into one flank of each mouse. Treatment was started 10 days after the implantation to see palpable tumor growth. Treatment consisted of 0.1 mg of COH-SR4/mice in 200 μL corn oil by oral gavage alternate day. Control groups were treated with 200 μL corn oil by oral gavage alternate days. Animals were examined daily for signs of tumor growth. Tumors were measured in two dimensions using calipers. Photographs of animals were taken at day 1, day 10, day 14, day 18, day 20, day 30, and day 51 after subcutaneous injection, are shown for all groups. Photographs of tumors were also taken at day 20 (for syngeneic model), and at day 51 (for xenograft model).
C57B mice for syngeneic model were obtained from Harlan, Indianapolis, Ind. All animal experiments were carried out in accordance with a protocol approved by the Institutional Animal Care and Use Committee (IACUC). Ten 10-weeks-old mice were divided into two groups of 5 animals (treated with corn oil (vehicle), and COH-SR4 4 mg/kg body weight). All 10 animals were injected with 1×10^6 mouse melanoma cells (B16-F0) suspensions in 100 μL of PBS, subcutaneously into one flank of each mouse. Treatment was started 10 days after the B16 melanoma cells implantation to see palpable tumor growth. Treatment consisted of 0.1 mg of COH-SR4/mice in 200 μL corn oil by oral gavage alternate day. Control groups were treated with 200 μL corn oil by oral gavage alternate day. Animals were examined daily for signs of tumor growth, and body weights were recorded. Tumors were measured in two dimensions using calipers. Photographs of animals were taken at day 1, day 10, day 14, day 18, and day 20 after subcutaneous injection, are shown for all groups. Photographs of tumors were also taken at day 20.
C57B mice (for syngeneic B16-F0 mouse melanoma model) and Hsd: Athymic nude nu/nu mice (for A2058 human melanoma mouse xenografts model), were used for testing the impact of oral administration of COH-SR4 on melanoma progression in vivo models. In each model, ten 10-weeks-old mice were divided into two groups of 5 animals (treated with corn oil (vehicle), and COH-SR4 compound (4 mg/kg b.w.). All animals were injected with 2×10^6 melanoma cells suspensions in 100 μL of PBS, subcutaneously into one flank of each mouse. Treatment was started 10 days after the implantation of melanoma cells. Treatment consisted of 0.1 mg of COH-SR4/mice in 200 μL corn oil by oral gavage on alternate days. Control groups were treated with 200 μL corn oil by oral gavage alternate day. Animals were examined daily for signs of tumor growth and body weights were recorded. […] Animals were examined daily for signs of tumor growth. Tumors were measured in two dimensions using calipers. […] Tumors were measured in two dimensions using calipers and time-course analysis of tumor regression was performed during the study. […]

The test system of another assay is human VEGF promoter. Briefly: VEGF promoter luciferase reporter in U251. Format: cell-based. The following applies: U251, 1 or 3 μM, 24 hours. On the procedure:
U251 cells expressing luciferase reporter containing human VEGF promoter were incubated with various concentrations of COH-SR4 (0, 1, or 3 μM) for 24 hours. Luciferase activity was determined and normalized to the cell number for each treatment. Data were represented as a ratio to vehicle control that was treated by DMSO.
(Reporter assays use an easily measured gene product as a stand-in for the process of interest.)

In the case of `O=C(Nc1cc(Cl)cc(Cl)c1)Nc1cc(Cl)cc(Cl)c1` [COH-SR4, 1,3-bis(3,5-dichlorophenyl) urea], the “mitochondrial swelling (absorbance at 600 nm)” value in assay [1] is given as “mitochondrial swelling was observed”. In addition, in the assay on H520 cells, the IC50 came to 2400 ± 300 nM. The “tumor cross-section areas compared to corn oil” value in the assay on B16-F0 melanoma (Example 16, 4 mg/kg oral gavage alternate day) is “significantly smaller”. The day of death in the assay with B16-F0 melanoma (Example 16, 4 mg/kg, corn oil only died on day 20) is 48 days. Also, the “tumor weights compared to corn oil” value in the assay on B16-F0 melanoma (Example 16, day 20) is “significantly smaller”. Further, the tumor weight in the assay with B16-F0 melanoma (Example 22, day 20, control 2.36±0.2 g) was 1.07 ± 0.2 g. In the assay on B16-F0 melanoma (Example 22, vehicle censored by day 20±2), this compound had a survival of 50 ± 5 days. Moreover, the “luciferase expression (VEGF promoter)” value in the assay with human VEGF promoter is on record as “inhibited luciferase expression of VEGF protein”.
